# According to patent US20030208035A1, “Antifungal and/or antibacterial peptides, preparation methods, compositions containing same and methods of treating mammals and/or plants” (priority 2000, published 2003):
# Where two headings read alike, the source gives them in different places. Bridges are numbered along the chain shown (N, C = ends). Where no end group is shown, it is not given here.
# Tests used:
# Candida albicans = assay: anti-Candida albicans growth inhibition test in liquid medium (96-well microplates); assay type: cell-based; settings: fold relative to Ard1
# Method: (§1) The anti-Candida albicans and anti-Aspergillus fumigatus activities of the different analogues were assessed using a growth inhibition test in liquid medium made in 96-well microplates. The activity of the purified peptides was tested for different dilutions of each peptide and was compared with those of heliomycin and Ard1 quantified under the same conditions.
# The activity test was made directly on yeasts derived from a stock frozen at −80° C., in Sabouraud medium containing 15% glycerol. The density of the yeasts in the stock was adjusted to an optical density of 0.4 OD at 600 nm. After slow thawing at room temperature, the yeast suspension was reduced by dilution to an optic density of 1 mOD at 600 nm in Sabouraud medium, and 90 μl of this dilution were deposited in the wells of microtitration plates in the presence of 10 μl of sample to be tested. Control samples were systematically made in which 10 μl of sample were replaced by 10 μl of sterile water. Media sterility was controlled by incubating 10 μl sterile water in the presence of 90 μl of medium. The samples were incubated at 30° C. for 40 h under slight stirring and the antifungal activity was quantified by measuring optic density at 600 nm.
# Alternaria brassicola = assay type: cell-based; settings: 48 h
# Method: (§2) 100 μl of peptide dilutions (concentration 50 with 0.097 mg/ml peptide) were deposited in microtitration plates.
# (§3) After adding 100 μl of frozen spores with 10^4 spores/ml of A. brassicola and N. crassa (donated by Dr. Bullet, IBMC, Strasbourg) the test plates were incubated 48 h at 30° C.
# (§4) Determination of minimal inhibiting concentrations (MIC) was made by observing well cover rate. The MIC was set at 50% well covering.
# Neurospora crassa = assay type: cell-based; settings: 48 h
# Method: as §2, §3, §4
# Aspergillus fumigatus = assay: anti-Aspergillus fumigatus growth inhibition test in liquid medium (96-well microplates); assay type: cell-based
# Method: as §1
# The spores of Aspergillus fumigatus were derived from a stock frozen at −80° C., containing 10^7 spores/ml in a 25% glycerol solution. After slow thawing at room temperature, the spores were placed in suspension in PDB culture medium (12 g Potato Dextrose Broth medium, per […] water). 10 μl of each sample were deposited in the wells of microtitration plates in the presence of 90 μl PDB culture medium supplemented with tetracycline (100 μg/ml) and cefotaxime (1 μg/ml) containing the spores (at a final concentration of 1000 spores/well). Control cultures were systematically made in which 10 μl of sample were replaced by 10 μl of sterile water. Media sterility was controlled by incubating 10 μl sterile water in the presence of 90 μl of medium. The samples were incubated at 37° C. for 24 h to 48 h in a humid atmosphere, and the antifungal activity was quantified by a score of 0 to 9 taking germination account; the size and morphology of the hyphs were determined under the binocular microscope. […].
# C. albicans = assay type: cell-based, Candida albicans; settings: 24 h
# Method: (§5) Candida yeasts (C. albicans, C. glabrata, C. dubliensis, C. tropicalis, C. kefyr, C. krusei and C. parapsilosis—donated by Dr. H. Koenig, Hôpital Civil, Strasbourg), fluconazole-resistant C. albicans (n^o245962, n^o2332, n^o246335 and n^o3552, donated by Drs. J.Meis and J. Mouton, University Hospital, Microbiology Department, Nijmegen, Netherlands), and Cryptoccocus neoformans (donated by Dr. H. Koenig, Hôpital Civil, Strasbourg) were seeded on Sabouraud-Cloramphenicol Agar slant gelose (Biomerieux) and left to incubate for 24 h at 30° C. (Candida sp.) and for 72 h at 37° C. (Cryptoccocus neoformans).
# (§6) Some yeast colonies were placed in suspension in liquid Sabouraud medium (Biomerieux) to obtain a final concentration of 0.1 OD at 600 nm corresponding to 2.5.10^6 yeasts/ml.
# (§7) The yeast suspension was adjusted to 5.10^3 yeast/ml in Sabouraud medium.
# (§8) 100 μl of peptide dilutions (concentration of 50 with 0.097 μg/ml peptide) were deposited in microtitration plates. After adding […] of yeast suspension with 5.10^3 yeast/ml i.e. 500 yeasts, the test plates were incubated 24 h at 30° C. (Candida) under slow shaking or 72 h at 37° C. (Cryptoccocus).
# (§9) Determination of minimal inhibiting concentrations (MIC) was made by measuring absorbency at 600 nm using a spectrophotometer-microtitration plate reader. The MIC score was set at a growth inhibition rate of 50%.
# C. glabrata = assay type: cell-based
# Method: as §5, §6, §7, §8, §9
# C. parapsilosis = assay type: cell-based
# Method: as §5, §6, §7, §8, §9
# C. kefyr = assay type: cell-based
# Method: as §5, §6, §7, §8, §9
# C. krusei = assay type: cell-based
# Method: as §5, §6, §7, §8, §9
# C. tropicalis = assay type: cell-based
# Method: as §5, §6, §7, §8, §9
# [1] = tested on: Candida albicans (IHEM 8060 strain); assay: Candida albicans infected model, lethal in mice (disseminated candidiasis); assay type: in vivo
# Method: Heliomycin and its analogues were tested for in vivo antifungal activity in a model infected with Candida albicans, lethal in mice. The pathogenic agent Candida albicans (IHEM 8060 strain) was inoculated by intravenous route (i.v.) at a dose of 2.5×10^6 CFU/mouse. the peptides were administered by i.v. route in 4 injections 6 h, 24 h, 48 h and 72 h after infection. Assessment criteria for activity were evaluation of survival and morbidity at 7 days. The morbidity scores, which take into account general state of health (condition of fur, mobility, hydration) were determined for each mouse with values ranging from 0 to 5 and defined below: 0=dead, 1=moribund, 2=very ill, 3=ill, 4=slightly ill, 5=healthy. The sum of the individual scores was calculated for each group, a score of 50 for a group of 10 mice meaning that all the mice were healthy.
# Following a standard protocol, groups of 10 Swiss OF1 male mice weighing 12 g were infected via i.v. route with a dose of 2.5×10^6 CFU/mouse. Heliomycin and Ard1 were administered by i.v. route in 4 injections, 6 h, 24 h, 48 h and 72 h after infection. For each peptide, 2 doses were tested: 10 mg/kg and 30 mg/kg. A placebo group was injected with peptide solvent, 0.9% sodium chloride.
# In this experiment, inoculation of the mice with 2.5.10^6 CFU/mouse was 50% lethal at day 5 in the group which received placebo treatment. The first deaths occurred on post-infection day 2.5 and median mortality occurred on post-infection day 5. On day 7, 5 mice were alive and the morbidity score 15/50.
# In this experiment, inoculation of Swiss OF1 mice weighing 15 g with 3.10^6 CFU of Candida albicans induces 50% mortality on day 4 after infection in the group treated with the placebo. The first deaths occur 2.5 days after infection, and 100% of the mice were dead on day 5.5.
# In this experiment, inoculation of the mice with 2.5.10^6 CFU/mouse was 50% lethal at day 5 and 100% at day 8 for mice in the placebo group. The first death occurred 3 days after infection. The morbidity score fell rapidly below 30/50 (25/50 at day 2.5).
# The pEM35 peptide was administered at doses of 10 and 30 mg/kg/injection with 3 daily doses for 4 days (1 h, 5 h and 10 h post-infection on day 0; at 8 h, 14 h and 20 h on days 1, 2 and 3), i.e., daily doses totalling 30 and 90 mg/kg.
# A. fumigatus = assay type: cell-based
# Method: (§10) The antifungal activity was detected by a growth inhibition test in a liquid medium.
# (§11) The filamentous fungi (A. fumigatus, A. flavus and A. terreus, donated by Dr. H. Koenig, Hôpital Civil, Strasbourg; and S. prolificans and F. solani donated by Drs. J. Meis and J. Mouton, University hospital, Microbioolgy Department, Nijmegen, Netherlands) were seeded on Malt-Agar slant gelose (Biomerieux) and incubated 7 days at 37° C.
# (§12) The spores were then collected with 10 ml YPG medium containing 0.05% Tween 20 and filtered through a gauze. The spores were centrifuged 10 min at 1700 rpm, the residue was collected in YPG (1 g Yeast extract, 1 g Peptone, 3 g Glucose per 1 l).
# (§13) The suspension was counted with a Coverslide and adjusted to 10^4 spores/ml.
# (§14) 100 μl of peptide dilutions (concentration of 50 with 0.097 μg/ml peptide) were deposited in microtitration plates. 100 μl with 10^4 spores/ml of filamentous fungi, i.e. 1000 spores, were then added.
# (§15) The test plates were incubated 48 h at 37° C.
# (§16) Determination of minimum inhibiting concentrations (MIC) was made by observing well cover rate. The MIC score was set at 50% well covering.
# [2] = tested on: fluconazole-resistant C. albicans; assay: microbe, parasite or virus in culture; assay type: cell-based, Candida albicans
# Method: as §5, §6, §7, §8, §9
# F. solani = assay: Test to detect activity against filamentous fungi (MIC); assay type: cell-based; settings: F. solani FFUS 8591
# Method: as §10, §11, §12, §13, §14, §15, §16
# S. prolificans = assay: as above; assay type: cell-based
# Method: as §10, §11, §12, §13, §14, §15, §16
# [3] = FIGS. 2-3, 10 mg/kg i.v., 4 injections
# [4] = fluconazole-resistant C. albicans n° 2332
# [5] = fluconazole-resistant C. albicans n° 245962
# [6] = fluconazole-resistant C. albicans n° 246335
compound,measurement,setting,value
"DKLIGSCVWGAVNYTSNCNAECKRRGYKGGHCGSFLNVNCWCER (disulfide 7-32, 18-40, 22-42 (inferred)) [pEM48]",Activity C.a. (relative activity in relation to Ard1),Candida albicans,6-12
same,MIC,Alternaria brassicola,12.5 µg/mL
same,MIC,Neurospora crassa,0.39 µg/mL
same,Activity A.f. (relative activity in relation to Ard1),Aspergillus fumigatus; fold relative to Ard1,1-2
same,MIC,C. albicans,1.56 µg/mL
same,MIC,C. glabrata,>25 µg/mL
same,MIC,C. parapsilosis,0.78 µg/mL
same,MIC,C. kefyr,25 µg/mL
same,MIC,C. krusei,1.56 µg/mL
same,MIC,C. tropicalis,3.125 µg/mL
"DKLIGSCVWGAVNYTSNCNAECKRRGYKGGHCGSFANVNCWCET (disulfide 7-32, 18-40, 22-42 (inferred)) [Ard1]",MIC,Alternaria brassicola,>25 µg/mL
same,MIC,Neurospora crassa,0.097 µg/mL
same,Activity A.f. (relative activity in relation to heliomycin),Aspergillus fumigatus; fold relative to heliomycin,2
same,MIC,C. glabrata,>25 µg/mL
same,MIC,C. kefyr,>25 µg/mL
same,MIC,C. krusei,3.125 µg/mL
same,effect on survival and general condition of the mice,[1]; [3],did not make it possible to improve survival
same,time after infection at which 50% of mice were dead,[1]; [3],2 days
same,mice alive on day 7 (out of 10),"[1]; FIGS. 2-3, 30 mg/kg i.v., 4 injections",5 mice
same,morbidity score at day 7,"[1]; FIGS. 2-3, 30 mg/kg i.v., 4 injections, 50 = all 10 mice healthy",16/50
same,delay of onset of the first death,"[1]; FIGS. 2-3, 30 mg/kg i.v., 4 injections, vs placebo",24 h
same,mice alive on day 7 (out of 10),"[1]; FIGS. 4-5, 10 mg/kg, placebo 5 alive",8 mice
same,delay of onset of the first death,"[1]; FIGS. 4-5, 2.5.10^6 CFU/mouse, 10 mg/kg, placebo first deaths day 2.5",36 h
same,effect on mouse survival relative to placebo treatment,"[1]; FIGS. 6-7, 3.10^6 CFU, 5 mg/kg, three i.v. injections, 10 mice of 15 g",does not significantly increase mouse survival
same,effectiveness in the candidiasis infected model,"[1]; FIGS. 6-7, dose 5 mg/kg",not effective
same,MIC,A. fumigatus; 48 h,12.5 µg/mL
OC(Cn1cncn1)(Cn1cncn1)c1ccc(F)cc1F [fluconazole],MIC,"[2]; Candida albicans, fluconazole-resistant C. albicans n° 3552, read-out: MIC",> 64 µg/mL
same,MIC,[2]; [4],> at 64 μg/ml
same,MIC,[2]; [5],> at 64 μg/ml
same,MIC,[2]; [6],> at 64 μg/ml
"C[C@@H]1[C@H](O)[C@@H](C)/C=C/C=C/C=C/C=C/C=C/C=C/C=C/[C@H](O[C@@H]2O[C@H](C)[C@@H](O)[C@H](N)[C@@H]2O)C[C@@H]2O[C@](O)(C[C@@H](O)C[C@@H](O)[C@H](O)CC[C@@H](O)C[C@@H](O)CC(=O)O[C@H]1C)C[C@H](O)[C@H]2C(=O)O [ampho B, Amphotericin B]",MIC,[2]; [4],0.25 µg/mL
same,MIC,[2]; [5],0.125 µg/mL
same,MIC,[2]; [6],0.0625 µg/mL
same,MIC,A. fumigatus; A. fumigatus FASF 5161,0.5 µg/mL
same,MIC,F. solani,> 16 µg/mL
same,MIC,S. prolificans; S. prolificans FSSP 7902,> 16 µg/mL
same,MIC,S. prolificans; S. prolificans FSSP 7908,> 16 µg/mL
